Measured values from ChEMBL document CHEMBL1145592, “Pleuromutilin derivatives having a purine ring. Part 1: new compounds with promising antibacterial activity against resistant Gram-positive pathogens” (2008).
In brackets after ≈: the same amount, converted by molar mass.

Assays:
Assay type in all cases: functional
Staphylococcus aureus [1] = assay: Antibacterial activity against methicillin-susceptible Staphylococcus aureus Smith
Staphylococcus aureus [2] = assay: Antibacterial activity against methicillin-resistant Staphylococcus aureus KMP9
Streptococcus pneumoniae [3] = assay: Antibacterial activity against penicillin-susceptible Streptococcus pneumoniae 1
Enterococcus faecium = assay: Antibacterial activity against vancomycin-resistant Enterococcus faecium KU1778
Staphylococcus aureus [4] = assay: Antibacterial activity against methicillin-susceptible Staphylococcus aureus Smith infected iv dosed mouse 1 hr after inoculation
Streptococcus pneumoniae [5] = assay: Antibacterial activity against penicillin-susceptible Streptococcus pneumoniae ATCC 49619
Streptococcus pneumoniae [6] = assay: Antibacterial activity against penicillin-resistant Streptococcus pneumoniae KT2524
Streptococcus pyogenes = assay: Antibacterial activity against Streptococcus pyogenes ATCC 12344
Moraxella catarrhalis = assay: Antibacterial activity against Moraxella catarrhalis K1209
Haemophilus influenzae = assay: Antibacterial activity against Haemophilus influenzae TH13
Staphylococcus aureus [7] = assay: Antibacterial activity against methicillin-susceptible Staphylococcus aureus Smith infected twice iv dosed mouse 1 and 4 hrs after inoculation

Row | Compound | MIC (Staphylococcus aureus [1]) [µg/mL] | MIC (Staphylococcus aureus [2]) [µg/mL] | MIC (Streptococcus pneumoniae [3]) [µg/mL] | MIC (Enterococcus faecium) [µg/mL] | ED50 (Staphylococcus aureus [4]) [mg/kg] | MIC (Streptococcus pneumoniae [5]) [µg/mL] | MIC (Streptococcus pneumoniae [6]) [µg/mL] | MIC (Streptococcus pyogenes) [µg/mL] | MIC (Moraxella catarrhalis) [µg/mL] | MIC (Haemophilus influenzae) [µg/mL] | ED50 (Staphylococcus aureus [7]) [mg/kg]
1 | C=C[C@]1(C)C[C@@H](OC(=O)CSC2CCN(C(=O)/C=C/n3cnc4cnc(N)nc43)CC2)[C@]2(C)[C@H](C)CC[C@]3(CCC(=O)[C@@H]32)[C@@H](C)[C@@H]1O | 0.1 (≈ 0.15 µM) | 0.2 (≈ 0.301 µM) | 0.39 (≈ 0.587 µM) | 0.2 (≈ 0.301 µM) | > 3.13 | – | – | – | – | – | –
2 | C=C[C@]1(C)C[C@@H](OC(=O)CSC2CCN(C(=O)CCn3cnc4c(N5CCCC5)nc(N)nc43)CC2)[C@]2(C)[C@H](C)CC[C@]3(CCC(=O)[C@@H]32)[C@@H](C)[C@@H]1O | 0.39 (≈ 0.53 µM) | 0.39 (≈ 0.53 µM) | 0.2 (≈ 0.272 µM) | 0.39 (≈ 0.53 µM) | > 3.13 | – | – | – | – | – | –
3 | CC[C@]1(C)C[C@@H](OC(=O)CSc2nnc(N)[nH]2)[C@]2(C)[C@H](C)CC[C@]3(CCC(=O)[C@@H]32)[C@@H](C)[C@@H]1O | 0.5 (≈ 1.04 µM) | 2 (≈ 4.18 µM) | – | 0.25 (≈ 0.522 µM) | – | 0.5 (≈ 1.04 µM) | 0.5 (≈ 1.04 µM) | 0.25 (≈ 0.522 µM) | 0.032 (≈ 0.0669 µM) | 0.5 (≈ 1.04 µM) | 6.88
4 | C=C[C@]1(C)C[C@@H](OC(=O)CSC2CCN(C(=O)CCn3cnc4c(N5CCNCC5)ncnc43)CC2)[C@]2(C)[C@H](C)CC[C@]3(CCC(=O)[C@@H]32)[C@@H](C)[C@@H]1O | 0.063 (≈ 0.0856 µM) | 0.063 (≈ 0.0856 µM) | – | 0.032 (≈ 0.0435 µM) | 2.94 | 0.032 (≈ 0.0435 µM) | 0.032 (≈ 0.0435 µM) | 0.016 (≈ 0.0217 µM) | 0.032 (≈ 0.0435 µM) | 1 (≈ 1.36 µM) | –
5 | C=C[C@]1(C)C[C@@H](OC(=O)CSC2CCN(C(=O)CCn3cnc4cnc(N)nc43)CC2)[C@]2(C)[C@H](C)CC[C@]3(CCC(=O)[C@@H]32)[C@@H](C)[C@@H]1O | 0.05 (≈ 0.075 µM) | 0.05 (≈ 0.075 µM) | 0.05 (≈ 0.075 µM) | 0.05 (≈ 0.075 µM) | < 3.13 | 0.125 (≈ 0.187 µM) | 0.063 (≈ 0.0945 µM) | 0.063 (≈ 0.0945 µM) | 0.25 (≈ 0.375 µM) | 2 (≈ 3 µM) | –
6 | C=C[C@]1(C)C[C@@H](OC(=O)CSC2CCN(C(=O)CCn3cnc4c(NC)nc(N)nc43)CC2)[C@]2(C)[C@H](C)CC[C@]3(CCC(=O)[C@@H]32)[C@@H](C)[C@@H]1O | 0.1 (≈ 0.144 µM) | 0.2 (≈ 0.287 µM) | 0.025 (≈ 0.0359 µM) | 0.1 (≈ 0.144 µM) | > 3.13 | – | – | – | – | – | –
7 | C=C[C@]1(C)C[C@@H](OC(=O)CSC2CCN(C(=O)CCn3cnc4cncnc43)CC2)[C@]2(C)[C@H](C)CC[C@]3(CCC(=O)[C@@H]32)[C@@H](C)[C@@H]1O | 0.05 (≈ 0.0767 µM) | 0.05 (≈ 0.0767 µM) | 0.1 (≈ 0.153 µM) | 0.05 (≈ 0.0767 µM) | > 3.13 | – | – | – | – | – | –
8 | C=C[C@]1(C)C[C@@H](OC(=O)CSC2CCN(C(=O)CCn3cnc4ncncc43)CC2)[C@]2(C)[C@H](C)CC[C@]3(CCC(=O)[C@@H]32)[C@@H](C)[C@@H]1O | 0.1 (≈ 0.153 µM) | 0.1 (≈ 0.153 µM) | 0.1 (≈ 0.153 µM) | 0.1 (≈ 0.153 µM) | > 3.13 | – | – | – | – | – | –
9 | C=C[C@]1(C)C[C@@H](OC(=O)CSC2CCN(C(=O)CCn3cnc4c(N)nc(N)nc43)CC2)[C@]2(C)[C@H](C)CC[C@]3(CCC(=O)[C@@H]32)[C@@H](C)[C@@H]1O | 0.05 (≈ 0.0733 µM) | 0.1 (≈ 0.147 µM) | 0.025 (≈ 0.0367 µM) | 0.05 (≈ 0.0733 µM) | > 3.13 | – | – | – | – | – | –
10 | C=C[C@]1(C)C[C@@H](OC(=O)CSC2CCN(C(=O)CCCn3cnc4cnc(N)nc43)CC2)[C@]2(C)[C@H](C)CC[C@]3(CCC(=O)[C@@H]32)[C@@H](C)[C@@H]1O | 0.1 (≈ 0.147 µM) | 0.2 (≈ 0.294 µM) | 0.78 (≈ 1.15 µM) | 0.1 (≈ 0.147 µM) | > 3.13 | – | – | – | – | – | –
11 | C=C[C@]1(C)C[C@@H](OC(=O)CSC2CCN(C(=O)CCn3cnc4c(N5CCNCC5)nc(N)nc43)CC2)[C@]2(C)[C@H](C)CC[C@]3(CCC(=O)[C@@H]32)[C@@H](C)[C@@H]1O | 0.25 (≈ 0.333 µM) | 0.5 (≈ 0.666 µM) | 0.063 (≈ 0.0839 µM) | 0.25 (≈ 0.333 µM) | < 3.13 | 0.063 (≈ 0.0839 µM) | 0.063 (≈ 0.0839 µM) | 0.032 (≈ 0.0426 µM) | 0.25 (≈ 0.333 µM) | 1 (≈ 1.33 µM) | 1.51
12 | C=C[C@]1(C)C[C@@H](OC(=O)CSC2CCN(C(=O)CCn3cnc4c(N5CCNC(C)C5)nc(N)nc43)CC2)[C@]2(C)[C@H](C)CC[C@]3(CCC(=O)[C@@H]32)[C@@H](C)[C@@H]1O (stereo partly specified) | 0.25 (≈ 0.327 µM) | 0.25 (≈ 0.327 µM) | – | 0.125 (≈ 0.163 µM) | 2.21 | 0.063 (≈ 0.0823 µM) | 0.063 (≈ 0.0823 µM) | 0.032 (≈ 0.0418 µM) | 0.063 (≈ 0.0823 µM) | 2 (≈ 2.61 µM) | –
13 | C=C[C@]1(C)C[C@@H](OC(=O)CSC2CCN(C(=O)CCn3cnc4c(N5CCC(N)CC5)ncnc43)CC2)[C@]2(C)[C@H](C)CC[C@]3(CCC(=O)[C@@H]32)[C@@H](C)[C@@H]1O | 0.125 (≈ 0.167 µM) | 0.25 (≈ 0.333 µM) | – | 0.063 (≈ 0.084 µM) | 1.5 | 0.016 (≈ 0.0213 µM) | 0.032 (≈ 0.0427 µM) | 0.016 (≈ 0.0213 µM) | 0.063 (≈ 0.084 µM) | 4 (≈ 5.33 µM) | –
14 | C=C[C@]1(C)C[C@@H](OC(=O)CSC2CCN(C(=O)CCn3cnc4c(N5CCCC(N)C5)nc(N)nc43)CC2)[C@]2(C)[C@H](C)CC[C@]3(CCC(=O)[C@@H]32)[C@@H](C)[C@@H]1O (stereo partly specified) | 0.25 (≈ 0.327 µM) | 1 (≈ 1.31 µM) | – | 0.25 (≈ 0.327 µM) | 2.21 | 0.063 (≈ 0.0823 µM) | 0.063 (≈ 0.0823 µM) | 0.032 (≈ 0.0418 µM) | 0.125 (≈ 0.163 µM) | 2 (≈ 2.61 µM) | –
15 | C=C[C@]1(C)C[C@@H](OC(=O)CSC2CCN(C(=O)CCn3cnc4c(N)ncnc43)CC2)[C@]2(C)[C@H](C)CC[C@]3(CCC(=O)[C@@H]32)[C@@H](C)[C@@H]1O | 0.2 (≈ 0.3 µM) | 0.39 (≈ 0.585 µM) | 0.78 (≈ 1.17 µM) | 0.39 (≈ 0.585 µM) | > 3.13 | – | – | – | – | – | –
16 | C=C[C@]1(C)C[C@@H](OC(=O)CSC2CCN(C(=O)CCn3cnc4c(N(C)C)nc(N)nc43)CC2)[C@]2(C)[C@H](C)CC[C@]3(CCC(=O)[C@@H]32)[C@@H](C)[C@@H]1O | 0.1 (≈ 0.141 µM) | 0.1 (≈ 0.141 µM) | 0.05 (≈ 0.0704 µM) | 0.1 (≈ 0.141 µM) | > 3.13 | – | – | – | – | – | –
17 | C=C[C@]1(C)C[C@@H](OC(=O)CSC2CCN(C(=O)Cn3cnc4cncnc43)CC2)[C@]2(C)[C@H](C)CC[C@]3(CCC(=O)[C@@H]32)[C@@H](C)[C@@H]1O | 0.2 (≈ 0.314 µM) | 0.2 (≈ 0.314 µM) | 1.56 (≈ 2.45 µM) | 0.2 (≈ 0.314 µM) | – | – | – | – | – | – | –
18 | C=C[C@]1(C)C[C@@H](OC(=O)CSC2CCN(C(=O)CCn3cnc4c(N5CCOCC5)nc(N)nc43)CC2)[C@]2(C)[C@H](C)CC[C@]3(CCC(=O)[C@@H]32)[C@@H](C)[C@@H]1O | 0.2 (≈ 0.266 µM) | 0.2 (≈ 0.266 µM) | 0.1 (≈ 0.133 µM) | 0.2 (≈ 0.266 µM) | – | – | – | – | – | – | –
19 | C=C[C@]1(C)C[C@@H](OC(=O)CSC2CCN(C(=O)CCn3cnc4c(N5CCC(N)CC5)nc(N)nc43)CC2)[C@]2(C)[C@H](C)CC[C@]3(CCC(=O)[C@@H]32)[C@@H](C)[C@@H]1O | 0.25 (≈ 0.327 µM) | 1 (≈ 1.31 µM) | – | 0.25 (≈ 0.327 µM) | 1.86 | 0.063 (≈ 0.0823 µM) | 0.125 (≈ 0.163 µM) | 0.063 (≈ 0.0823 µM) | 0.125 (≈ 0.163 µM) | 2 (≈ 2.61 µM) | –
20 | C=C[C@]1(C)C[C@@H](OC(=O)CSC2CCN(C(=O)CCn3cnc4c(N5CCCC(N)C5)ncnc43)CC2)[C@]2(C)[C@H](C)CC[C@]3(CCC(=O)[C@@H]32)[C@@H](C)[C@@H]1O (stereo partly specified) | 0.125 (≈ 0.167 µM) | 0.125 (≈ 0.167 µM) | – | 0.032 (≈ 0.0427 µM) | 2.21 | 0.016 (≈ 0.0213 µM) | 0.032 (≈ 0.0427 µM) | 0.016 (≈ 0.0213 µM) | 0.032 (≈ 0.0427 µM) | 1 (≈ 1.33 µM) | –
21 | C=C[C@]1(C)C[C@@H](OC(=O)CSC2CCN(C(=O)CCn3cnc4c(N5CCN(C)CC5)nc(N)nc43)CC2)[C@]2(C)[C@H](C)CC[C@]3(CCC(=O)[C@@H]32)[C@@H](C)[C@@H]1O | 0.125 (≈ 0.163 µM) | 0.125 (≈ 0.163 µM) | – | 0.125 (≈ 0.163 µM) | 8.83 | 0.125 (≈ 0.163 µM) | 0.063 (≈ 0.0823 µM) | 0.063 (≈ 0.0823 µM) | 0.063 (≈ 0.0823 µM) | 2 (≈ 2.61 µM) | –
